{"source": "patent EP4745137A1", "about": "(Gluetacs Therapeutics (Shanghai) Co., Ltd., priority 2023, dated 2025)", "key": {"[1]": {"test_system": "Human acute T lymphocytic leukemia cells (Molt-4)", "experiment": "Tumor cell proliferation inhibition (CellTiter-Meiluncell Luminescent Cell Viability Assay), Molt-4", "details": "MOLT-4, 96 h, read-out: inhibitory activity (IC50, nM) against tumor cells proliferation, Molt 4"}, "WEE1": {"biological_target": "T1, WEE1 (Homo sapiens, UniProt P30291+Q96SW2)", "T1 construct": "endogenous in cells; host or cells: hPBMCs (Milecell Biotechnologies)", "T1 sequence (P30291 whole entry)": "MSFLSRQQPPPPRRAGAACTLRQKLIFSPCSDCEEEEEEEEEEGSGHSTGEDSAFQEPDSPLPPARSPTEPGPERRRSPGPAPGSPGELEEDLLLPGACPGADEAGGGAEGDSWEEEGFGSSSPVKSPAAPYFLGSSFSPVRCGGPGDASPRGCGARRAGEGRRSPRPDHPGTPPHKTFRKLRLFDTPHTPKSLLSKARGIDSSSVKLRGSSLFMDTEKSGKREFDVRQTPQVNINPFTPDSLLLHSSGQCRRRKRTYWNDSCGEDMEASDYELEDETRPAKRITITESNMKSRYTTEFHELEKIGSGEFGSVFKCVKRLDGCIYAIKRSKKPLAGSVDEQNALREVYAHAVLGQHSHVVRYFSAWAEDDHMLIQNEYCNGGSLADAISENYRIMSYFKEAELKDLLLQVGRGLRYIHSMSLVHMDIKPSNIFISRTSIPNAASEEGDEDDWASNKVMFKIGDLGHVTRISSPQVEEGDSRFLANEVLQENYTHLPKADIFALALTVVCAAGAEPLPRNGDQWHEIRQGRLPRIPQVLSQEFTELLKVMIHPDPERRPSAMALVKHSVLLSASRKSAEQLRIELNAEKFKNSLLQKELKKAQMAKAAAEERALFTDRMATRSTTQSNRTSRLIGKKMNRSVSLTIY", "T1 sequence (Q96SW2 whole entry)": "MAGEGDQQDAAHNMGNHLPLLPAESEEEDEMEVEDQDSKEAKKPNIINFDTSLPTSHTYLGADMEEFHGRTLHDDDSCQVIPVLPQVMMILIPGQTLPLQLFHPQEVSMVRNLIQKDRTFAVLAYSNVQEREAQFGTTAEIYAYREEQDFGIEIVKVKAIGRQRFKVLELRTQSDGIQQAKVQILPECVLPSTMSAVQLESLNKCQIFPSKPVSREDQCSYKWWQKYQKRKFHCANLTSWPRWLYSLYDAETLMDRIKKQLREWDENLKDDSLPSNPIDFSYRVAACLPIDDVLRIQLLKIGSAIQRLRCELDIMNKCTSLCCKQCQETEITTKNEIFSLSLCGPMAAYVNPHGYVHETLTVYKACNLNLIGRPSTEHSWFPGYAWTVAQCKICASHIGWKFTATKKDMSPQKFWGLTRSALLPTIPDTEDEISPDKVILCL", "T1 sequence (Q16531 whole entry partner)": "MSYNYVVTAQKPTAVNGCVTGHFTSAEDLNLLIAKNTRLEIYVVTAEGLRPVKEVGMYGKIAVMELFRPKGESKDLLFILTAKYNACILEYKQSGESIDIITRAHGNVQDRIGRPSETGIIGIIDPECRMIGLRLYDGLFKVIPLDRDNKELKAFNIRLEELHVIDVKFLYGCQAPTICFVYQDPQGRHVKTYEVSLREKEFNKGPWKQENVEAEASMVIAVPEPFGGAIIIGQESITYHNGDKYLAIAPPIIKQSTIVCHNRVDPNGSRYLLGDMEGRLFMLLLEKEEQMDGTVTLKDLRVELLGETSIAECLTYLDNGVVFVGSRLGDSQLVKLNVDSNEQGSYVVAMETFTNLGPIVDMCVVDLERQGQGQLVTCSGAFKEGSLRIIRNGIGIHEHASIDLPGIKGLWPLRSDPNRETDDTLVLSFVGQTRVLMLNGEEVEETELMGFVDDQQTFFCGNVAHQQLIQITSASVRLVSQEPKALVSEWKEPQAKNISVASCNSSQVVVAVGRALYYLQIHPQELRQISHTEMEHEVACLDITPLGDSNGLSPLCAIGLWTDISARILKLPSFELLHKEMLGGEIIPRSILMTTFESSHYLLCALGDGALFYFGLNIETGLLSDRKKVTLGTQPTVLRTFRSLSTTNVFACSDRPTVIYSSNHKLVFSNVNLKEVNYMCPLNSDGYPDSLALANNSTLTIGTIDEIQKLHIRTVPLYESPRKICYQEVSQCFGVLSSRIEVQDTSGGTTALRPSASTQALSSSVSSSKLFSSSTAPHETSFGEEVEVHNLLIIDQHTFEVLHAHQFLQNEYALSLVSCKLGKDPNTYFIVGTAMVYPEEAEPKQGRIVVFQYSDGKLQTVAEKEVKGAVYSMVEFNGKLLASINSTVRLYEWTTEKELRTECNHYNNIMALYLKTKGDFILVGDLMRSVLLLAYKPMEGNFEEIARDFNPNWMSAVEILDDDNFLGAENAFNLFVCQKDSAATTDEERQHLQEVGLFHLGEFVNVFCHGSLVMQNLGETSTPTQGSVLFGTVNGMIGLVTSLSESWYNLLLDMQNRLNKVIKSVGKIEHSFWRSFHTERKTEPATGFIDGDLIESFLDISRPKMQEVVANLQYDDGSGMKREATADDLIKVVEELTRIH", "experiment": "Western-blot assay of substrate protein degradation in hPBMCs, WEE1", "type": "cell-based", "details": "24 hours of compound treatment, compounds tested at 50 nM and 500 nM (concentration of the table not stated)"}, "IKZF2": {"biological_target": "T2, IKZF2 (Homo sapiens, UniProt Q96SW2+Q9UKS7)", "T2 construct": "endogenous in cells; host or cells: hPBMCs (Milecell Biotechnologies)", "T2 sequence (Q9UKS7 whole entry)": "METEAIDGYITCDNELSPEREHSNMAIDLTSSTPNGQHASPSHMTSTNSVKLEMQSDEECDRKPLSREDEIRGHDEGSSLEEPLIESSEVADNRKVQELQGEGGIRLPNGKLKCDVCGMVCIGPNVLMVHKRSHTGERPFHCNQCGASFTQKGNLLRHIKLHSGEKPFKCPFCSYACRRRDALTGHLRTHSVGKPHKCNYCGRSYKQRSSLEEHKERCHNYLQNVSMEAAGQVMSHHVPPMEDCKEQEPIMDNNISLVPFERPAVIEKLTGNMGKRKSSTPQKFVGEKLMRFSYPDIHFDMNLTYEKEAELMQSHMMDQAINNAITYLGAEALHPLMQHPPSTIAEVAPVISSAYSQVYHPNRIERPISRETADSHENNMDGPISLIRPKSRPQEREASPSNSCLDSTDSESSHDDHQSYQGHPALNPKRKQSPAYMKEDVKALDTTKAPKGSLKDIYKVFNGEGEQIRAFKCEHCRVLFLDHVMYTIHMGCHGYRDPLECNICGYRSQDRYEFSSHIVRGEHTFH", "T2 sequence (Q96SW2 whole entry)": "as the sequence (Q96SW2 whole entry) above", "T2 sequence (Q16531 whole entry partner)": "as the sequence (Q16531 whole entry partner) above", "experiment": "Western-blot assay of substrate protein degradation in hPBMCs, IKZF2", "type": "cell-based", "details": "24 hours of compound treatment, compounds tested at 50 nM and 500 nM (concentration of the table not stated)"}, "CK1α": {"biological_target": "T3, CK1α (Homo sapiens, UniProt P48729+Q96SW2)", "T3 construct": "endogenous in cells; host or cells: hPBMCs (Milecell Biotechnologies)", "experiment": "Western-blot assay of substrate protein degradation in hPBMCs, CK1α", "type": "cell-based", "details": "24 hours of compound treatment, compounds tested at 50 nM and 500 nM (concentration of the table not stated)"}, "[2]": {"biological_target": "T4, human Cereblon WT GST-tagged protein (Homo sapiens, UniProt Q96SW2)", "T4 construct": "purchased CISBIO 64BDCRBNPEH", "T4 sequence (Q96SW2 whole entry)": "as the sequence (Q96SW2 whole entry) above", "experiment": "CRBN-binding affinity by HTRF (CEREBLON BINDING kit)", "details": "HTRF inhibitory activity, CEREBLON BINDING kit; read-out: HTRF IC50"}, "IKZF3": {"biological_target": "T5, IKZF3 (Homo sapiens, UniProt Q96SW2+Q9UKT9)", "T5 construct": "endogenous in cells; host or cells: hPBMCs (Milecell Biotechnologies)", "T5 sequence (Q9UKT9 whole entry)": "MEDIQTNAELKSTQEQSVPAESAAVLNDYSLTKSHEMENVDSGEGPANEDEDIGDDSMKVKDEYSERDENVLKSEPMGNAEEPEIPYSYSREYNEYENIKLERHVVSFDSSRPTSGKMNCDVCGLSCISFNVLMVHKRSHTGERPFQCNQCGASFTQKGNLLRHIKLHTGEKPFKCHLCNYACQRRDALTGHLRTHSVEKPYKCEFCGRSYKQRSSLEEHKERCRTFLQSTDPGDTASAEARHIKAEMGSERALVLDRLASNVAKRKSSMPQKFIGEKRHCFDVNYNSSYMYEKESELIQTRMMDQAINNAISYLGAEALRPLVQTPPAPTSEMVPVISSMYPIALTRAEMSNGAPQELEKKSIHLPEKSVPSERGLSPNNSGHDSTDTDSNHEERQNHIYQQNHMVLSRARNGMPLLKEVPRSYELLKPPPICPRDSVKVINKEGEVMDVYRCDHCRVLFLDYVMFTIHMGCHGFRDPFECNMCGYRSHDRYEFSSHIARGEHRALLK", "T5 sequence (Q96SW2 whole entry)": "as the sequence (Q96SW2 whole entry) above", "T5 sequence (Q16531 whole entry partner)": "as the sequence (Q16531 whole entry partner) above", "experiment": "Western-blot assay of substrate protein degradation in hPBMCs, IKZF3", "type": "cell-based", "details": "24 hours of compound treatment, compounds tested at 50 nM and 500 nM (concentration of the table not stated)"}, "GSPT1": {"biological_target": "T6, GSPT1 (Homo sapiens, UniProt P15170+Q96SW2)", "T6 construct": "endogenous in cells; host or cells: hPBMCs (Milecell Biotechnologies)", "T6 sequence (P15170 whole entry)": "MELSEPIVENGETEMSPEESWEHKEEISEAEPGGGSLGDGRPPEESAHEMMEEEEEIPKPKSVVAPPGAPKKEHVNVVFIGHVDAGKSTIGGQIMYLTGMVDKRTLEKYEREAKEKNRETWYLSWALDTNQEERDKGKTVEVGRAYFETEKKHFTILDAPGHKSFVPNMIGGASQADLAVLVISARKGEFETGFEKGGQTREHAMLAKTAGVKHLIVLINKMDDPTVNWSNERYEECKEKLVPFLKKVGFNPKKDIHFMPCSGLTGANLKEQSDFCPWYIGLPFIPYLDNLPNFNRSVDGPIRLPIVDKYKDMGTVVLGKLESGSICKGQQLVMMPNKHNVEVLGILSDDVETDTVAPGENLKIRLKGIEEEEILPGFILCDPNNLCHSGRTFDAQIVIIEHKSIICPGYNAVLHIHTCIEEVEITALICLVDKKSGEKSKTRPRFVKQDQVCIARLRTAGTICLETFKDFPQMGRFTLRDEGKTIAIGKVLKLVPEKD", "T6 sequence (Q96SW2 whole entry)": "as the sequence (Q96SW2 whole entry) above", "T6 sequence (Q16531 whole entry partner)": "as the sequence (Q16531 whole entry partner) above", "experiment": "Western-blot assay of substrate protein degradation in hPBMCs, GSPT1", "type": "cell-based", "details": "24 hours of compound treatment, compounds tested at 50 nM and 500 nM (concentration of the table not stated)"}, "IKZF1": {"biological_target": "T7, IKZF1 (Homo sapiens, UniProt Q13422+Q96SW2)", "T7 construct": "endogenous in cells; host or cells: hPBMCs (Milecell Biotechnologies)", "T7 sequence (Q13422 whole entry)": "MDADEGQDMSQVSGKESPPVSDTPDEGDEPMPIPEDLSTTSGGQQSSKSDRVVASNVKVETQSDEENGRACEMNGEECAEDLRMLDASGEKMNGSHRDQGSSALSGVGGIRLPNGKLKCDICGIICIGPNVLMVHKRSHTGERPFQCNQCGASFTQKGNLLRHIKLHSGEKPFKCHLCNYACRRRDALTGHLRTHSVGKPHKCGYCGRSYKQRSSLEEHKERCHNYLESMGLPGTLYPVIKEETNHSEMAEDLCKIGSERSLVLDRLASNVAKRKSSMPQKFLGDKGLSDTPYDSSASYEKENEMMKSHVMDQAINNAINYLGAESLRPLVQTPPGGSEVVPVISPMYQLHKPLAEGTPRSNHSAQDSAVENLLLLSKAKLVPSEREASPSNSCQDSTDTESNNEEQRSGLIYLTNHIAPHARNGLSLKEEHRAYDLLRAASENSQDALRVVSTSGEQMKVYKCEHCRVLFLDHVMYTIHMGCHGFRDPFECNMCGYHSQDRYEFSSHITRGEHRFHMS", "T7 sequence (Q96SW2 whole entry)": "as the sequence (Q96SW2 whole entry) above", "T7 sequence (Q16531 whole entry partner)": "as the sequence (Q16531 whole entry partner) above", "experiment": "Western-blot assay of substrate protein degradation in hPBMCs, IKZF1", "type": "cell-based", "details": "24 hours of compound treatment, compounds tested at 50 nM and 500 nM (concentration of the table not stated)"}}, "data": [{"smiles": "Cc1csc2ncnc(C3=CCN(Cc4ccc5c(c4)CN(C4CCC(=O)NC4=O)C5=O)CC3)c12", "note": "(stereo not shown) [GT-04703, 3-(5-((4-(5-methylthieno[2,3-d]pyrimidin-4-yl)-3,6-dihydropyridin-1(2H)-yl)methyl)-1-oxoisoindolin-2-yl)piperidine-2,6-dione]", "values": [{"measurement": "IC50", "setting": "[1]", "value": "100 to 500", "unit": "nM"}, {"measurement": "Weel substrate protein remaining %", "setting": "WEE1", "value": "B (80%< substrate protein remaining %≤ 100%)"}, {"measurement": "IKZF2 substrate protein remaining %", "setting": "IKZF2", "value": "A (0% ≤ substrate protein remaining % ≤ 80%)"}, {"measurement": "CK1a substrate protein remaining %", "setting": "CK1α", "value": "A (0% ≤ substrate protein remaining % ≤ 80%)"}, {"measurement": "IC50", "setting": "[2]", "value": "0.5 to 1", "unit": "µM"}, {"measurement": "IKZF3 substrate protein remaining %", "setting": "IKZF3", "value": "A (0% ≤ substrate protein remaining % ≤ 80%)"}, {"measurement": "GSPT1 substrate protein remaining %", "setting": "GSPT1", "value": "A (0% ≤ substrate protein remaining % ≤ 80%)"}, {"measurement": "IKZF 1 substrate protein remaining %", "setting": "IKZF1", "value": "A (0% ≤ substrate protein remaining % ≤ 80%)"}]}, {"smiles": "Cc1nc(C2CCN(Cc3ccc4c(c3)CN(C3CCC(=O)NC3=O)C4=O)CC2)c2ccsc2n1", "note": "(stereo not shown) [GT-04726, 3-(5-((4-(2-methylthieno[2,3-d]pyrimidin-4-yl)piperidin-1-yl)methyl)-1-oxoisoindolin-2-yl)piperidine-2,6-dione]", "values": [{"measurement": "IC50", "setting": "[1]", "value": "10 to 50", "unit": "nM"}, {"measurement": "Weel substrate protein remaining %", "setting": "WEE1", "value": "A (0% ≤ substrate protein remaining % ≤ 80%)"}, {"measurement": "IKZF2 substrate protein remaining %", "setting": "IKZF2", "value": "A (0% ≤ substrate protein remaining % ≤ 80%)"}, {"measurement": "CK1a substrate protein remaining %", "setting": "CK1α", "value": "A (0% ≤ substrate protein remaining % ≤ 80%)"}, {"measurement": "IC50", "setting": "[2]", "value": "0.5 to 1", "unit": "µM"}, {"measurement": "IKZF3 substrate protein remaining %", "setting": "IKZF3", "value": "A (0% ≤ substrate protein remaining % ≤ 80%)"}, {"measurement": "GSPT1 substrate protein remaining %", "setting": "GSPT1", "value": "A (0% ≤ substrate protein remaining % ≤ 80%)"}, {"measurement": "IKZF 1 substrate protein remaining %", "setting": "IKZF1", "value": "A (0% ≤ substrate protein remaining % ≤ 80%)"}]}, {"smiles": "O=C1CCC(N2Cc3cc(CN4CCC(c5ccco5)CC4)ccc3C2=O)C(=O)N1", "note": "(stereo not shown) [GT-04618, 3-(5-((4-(furan-2-yl)piperidin-1-yl)methyl)-1-oxoisoindolin-2-yl)piperidine-2,6-dione]", "values": [{"measurement": "IC50", "setting": "[1]", "value": "50 to 100", "unit": "nM"}, {"measurement": "Weel substrate protein remaining %", "setting": "WEE1", "value": "A (0% ≤ substrate protein remaining % ≤ 80%)"}, {"measurement": "IKZF2 substrate protein remaining %", "setting": "IKZF2", "value": "A (0% ≤ substrate protein remaining % ≤ 80%)"}, {"measurement": "CK1a substrate protein remaining %", "setting": "CK1α", "value": "B (80%< substrate protein remaining %≤ 100%)"}, {"measurement": "IC50", "setting": "[2]", "value": "0.5 to 1", "unit": "µM"}, {"measurement": "IKZF3 substrate protein remaining %", "setting": "IKZF3", "value": "A (0% ≤ substrate protein remaining % ≤ 80%)"}, {"measurement": "GSPT1 substrate protein remaining %", "setting": "GSPT1", "value": "A (0% ≤ substrate protein remaining % ≤ 80%)"}, {"measurement": "IKZF 1 substrate protein remaining %", "setting": "IKZF1", "value": "A (0% ≤ substrate protein remaining % ≤ 80%)"}]}, {"smiles": "O=C1CCC(N2Cc3cc(CN4CCN(c5nc(N6CCOCC6)nc6c5SCC6)CC4)ccc3C2=O)C(=O)N1", "note": "(stereo not shown) [GT-04710, 3-(5-((4-(2-morpholino-6,7-dihydrothieno[3,2-d]pyrimidin-4-yl)piperazin-1-yl)methyl)-1-oxoisoindolin-2-yl)piperidine-2,6-dione]", "values": [{"measurement": "IC50", "setting": "[1]", "value": "500 to 1000", "unit": "nM"}, {"measurement": "Weel substrate protein remaining %", "setting": "WEE1", "value": "B (80%< substrate protein remaining %≤ 100%)"}, {"measurement": "IKZF2 substrate protein remaining %", "setting": "IKZF2", "value": "B (80%< substrate protein remaining %≤ 100%)"}, {"measurement": "CK1a substrate protein remaining %", "setting": "CK1α", "value": "A (0% ≤ substrate protein remaining % ≤ 80%)"}, {"measurement": "IC50", "setting": "[2]", "value": "< 0.5", "unit": "µM"}, {"measurement": "IKZF3 substrate protein remaining %", "setting": "IKZF3", "value": "A (0% ≤ substrate protein remaining % ≤ 80%)"}, {"measurement": "GSPT1 substrate protein remaining %", "setting": "GSPT1", "value": "A (0% ≤ substrate protein remaining % ≤ 80%)"}, {"measurement": "IKZF 1 substrate protein remaining %", "setting": "IKZF1", "value": "B (80%< substrate protein remaining %≤ 100%)"}]}, {"smiles": "O=C1CCC(N2Cc3cc(CN4CCC(c5cccc6c(F)cccc56)CC4)ccc3C2=O)C(=O)N1", "note": "(stereo not shown) [GT-04664, 3-(5-((4-(5-fluoronaphthalen-1-yl)piperidin-1-yl)methyl)-1-oxoisoindolin-2-yl)piperidine-2,6-dione]", "values": [{"measurement": "IC50", "setting": "[1]", "value": "100 to 500", "unit": "nM"}, {"measurement": "Weel substrate protein remaining %", "setting": "WEE1", "value": "A (0% ≤ substrate protein remaining % ≤ 80%)"}, {"measurement": "IKZF2 substrate protein remaining %", "setting": "IKZF2", "value": "A (0% ≤ substrate protein remaining % ≤ 80%)"}, {"measurement": "CK1a substrate protein remaining %", "setting": "CK1α", "value": "A (0% ≤ substrate protein remaining % ≤ 80%)"}, {"measurement": "IC50", "setting": "[2]", "value": "0.5 to 1", "unit": "µM"}, {"measurement": "IKZF3 substrate protein remaining %", "setting": "IKZF3", "value": "A (0% ≤ substrate protein remaining % ≤ 80%)"}, {"measurement": "GSPT1 substrate protein remaining %", "setting": "GSPT1", "value": "A (0% ≤ substrate protein remaining % ≤ 80%)"}, {"measurement": "IKZF 1 substrate protein remaining %", "setting": "IKZF1", "value": "A (0% ≤ substrate protein remaining % ≤ 80%)"}]}]}
